Reference: patent publication US20230257372A1 (CHONG KUN DANG PHARMACEUTICAL CORP., priority 2020, published 2023)

Assays:
human recombinant HDAC1 = biological target: T1, human recombinant HDAC1 (Homo sapiens, UniProt Q13547); assay: HDAC1 enzyme activity inhibition (HDAC Fluorimetric Drug Discovery Kit); assay type: biochemical; conditions: human recombinant HDAC1; IC50 calculated with GraphPad Prism; read-out: HDAC1
T1 construct: purchased Enzo Life Science, Inc. BML-SE456
Method: (§1) An experiment was conducted to identify the selectivity of the compound represented by formula I of the present invention to HDAC6 through an experiment on HDAC1 and HDAC6 enzyme activity inhibition.
(§2) A 5-fold dilution of the compound was divided into a 96-well plate, after which […] of the enzyme and 10 μM of the substrate were inserted into each well and subjected to reaction at 30° C. for 60 minutes, such that Fluor de Lys® Developer II (BML-KI176) was inserted thereinto and subjected to reaction for 30 minutes and finished.

human recombinant HDAC6 = biological target: T2, human recombinant HDAC6 (Homo sapiens, UniProt Q9UBN7); assay: HDAC6 enzyme activity inhibition (HDAC Fluorimetric Drug Discovery Kit); assay type: biochemical; conditions: for HDAC6 selectivity (fold): HDAC1 IC50 / HDAC6 IC50; for IC50: human recombinant HDAC6, IC50 calculated with GraphPad Prism
T2 construct: purchased Calbiochem Inc. 382180
T2 sequence (Q9UBN7 1-1215): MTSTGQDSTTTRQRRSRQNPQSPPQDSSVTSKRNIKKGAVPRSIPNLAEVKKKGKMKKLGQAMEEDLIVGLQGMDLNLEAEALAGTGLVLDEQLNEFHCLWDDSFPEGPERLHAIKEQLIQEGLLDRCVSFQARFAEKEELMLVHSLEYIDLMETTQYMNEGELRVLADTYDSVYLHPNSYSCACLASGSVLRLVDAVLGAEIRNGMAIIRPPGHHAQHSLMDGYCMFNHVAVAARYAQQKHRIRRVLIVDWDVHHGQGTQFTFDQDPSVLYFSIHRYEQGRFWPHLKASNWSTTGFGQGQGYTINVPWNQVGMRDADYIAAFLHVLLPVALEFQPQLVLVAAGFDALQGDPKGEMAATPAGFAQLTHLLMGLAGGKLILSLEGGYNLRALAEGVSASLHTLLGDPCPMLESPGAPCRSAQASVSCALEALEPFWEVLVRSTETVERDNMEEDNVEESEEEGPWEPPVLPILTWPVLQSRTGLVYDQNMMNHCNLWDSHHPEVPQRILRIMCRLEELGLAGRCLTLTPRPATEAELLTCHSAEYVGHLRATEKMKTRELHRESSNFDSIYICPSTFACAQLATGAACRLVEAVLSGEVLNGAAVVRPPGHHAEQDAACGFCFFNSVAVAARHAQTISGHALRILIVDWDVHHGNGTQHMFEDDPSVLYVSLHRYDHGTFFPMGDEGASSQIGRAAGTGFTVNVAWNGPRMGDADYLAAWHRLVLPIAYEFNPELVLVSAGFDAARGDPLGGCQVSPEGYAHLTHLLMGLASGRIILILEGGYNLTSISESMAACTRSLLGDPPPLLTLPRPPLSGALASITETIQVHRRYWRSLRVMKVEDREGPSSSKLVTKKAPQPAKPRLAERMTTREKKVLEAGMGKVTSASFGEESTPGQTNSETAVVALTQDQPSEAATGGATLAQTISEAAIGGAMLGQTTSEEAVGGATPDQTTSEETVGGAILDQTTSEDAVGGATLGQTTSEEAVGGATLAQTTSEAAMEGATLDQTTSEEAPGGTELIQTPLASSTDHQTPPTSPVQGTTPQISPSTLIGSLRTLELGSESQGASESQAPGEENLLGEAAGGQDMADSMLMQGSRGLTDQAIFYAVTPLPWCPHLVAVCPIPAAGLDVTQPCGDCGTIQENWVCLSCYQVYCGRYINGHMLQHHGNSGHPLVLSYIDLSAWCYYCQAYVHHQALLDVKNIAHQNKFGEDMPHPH
Method: as §1, §2

T1 sequence (Q13547 whole entry): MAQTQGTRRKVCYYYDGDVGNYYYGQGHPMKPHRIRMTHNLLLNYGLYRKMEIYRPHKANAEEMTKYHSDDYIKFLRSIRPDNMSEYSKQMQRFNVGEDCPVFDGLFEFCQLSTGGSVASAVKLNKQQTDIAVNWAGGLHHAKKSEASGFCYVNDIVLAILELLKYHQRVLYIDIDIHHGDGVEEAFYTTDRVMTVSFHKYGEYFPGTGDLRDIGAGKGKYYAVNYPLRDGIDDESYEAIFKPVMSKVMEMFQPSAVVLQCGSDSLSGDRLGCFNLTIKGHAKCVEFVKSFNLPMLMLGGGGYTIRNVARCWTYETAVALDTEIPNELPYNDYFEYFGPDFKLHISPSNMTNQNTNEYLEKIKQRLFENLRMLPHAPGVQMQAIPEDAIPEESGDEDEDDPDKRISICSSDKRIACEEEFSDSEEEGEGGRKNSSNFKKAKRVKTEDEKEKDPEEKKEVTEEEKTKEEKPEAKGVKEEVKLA

Compound	IC50 (human recombinant HDAC1) [nM]	HDAC6 selectivity (fold) (human recombinant HDAC6)	IC50 (human recombinant HDAC6) [nM]
FC(F)c1nnc(-c2ccc(Cn3cc(C4CCN(C5CC6(COC6)C5)CC4)nn3)nc2)o1 [Compound 3810, 2-(6-((4-(1-(2-oxaspiro[3.3]heptan-6-yl)piperidin-4-yl)-1H-1,2,3-triazol-1-yl)methyl)pyridin-3-yl)-5-(difluoromethyl)-1,3,4-oxadiazole]	> 50000	178	280
CC(=O)N1CCC(c2cn(Cc3ccc(-c4nnc(C(F)F)o4)cn3)nn2)CC1 [Compound 3811, 1-(4-(1-((5-(5-(difluoromethyl)-1,3,4-oxadiazol-2-yl)pyridin-2-yl)methyl)-1H-1,2,3-triazol-4-yl)piperidin-1-yl)ethan-1-one]	> 50000	241	207
CS(=O)(=O)N1CCC(c2cn(Cc3ccc(-c4nnc(C(F)F)o4)cn3)nn2)CC1 [Compound 3812]	> 50000	446	112
O=C(CO)N1CCC(c2cn(Cc3ccc(-c4nnc(C(F)F)o4)cn3)nn2)CC1 [Compound 3813, 1-(4-(1-((5-(5-(difluoromethyl)-1,3,4-oxadiazol-2-yl)pyridin-2-yl)methyl)-1H-1,2,3-triazol-4-yl)piperidin-1-yl)-2-hydroxyethan-1-one]	> 50000	166	300
CC(C)(C)OC(=O)N1CCC(c2cn(Cc3ccc(-c4nnc(C(F)F)o4)cn3)nn2)C1 (stereo not drawn) [Compound 3820, Tert-butyl 3-(1-((5-(5-(difluoromethyl)-1,3,4-oxadiazol-2-yl)pyridin-2-yl)methyl)-1H-1,2,3-triazol-4-yl)pyrrolidin-1-carboxylate]	> 50000	294	170
FC(F)c1nnc(-c2ccc(Cn3cc(CCc4cn5ccccc5n4)nn3)nc2)o1 [Compound 3822, 2-(difluoromethyl)-5-(6-((4-(2-(imidazo[1,2-a]pyridin-2-yl)ethyl)-1H-1,2,3-triazol-1-yl)methyl)pyridin-3-yl)-1,3,4-oxadiazole]	> 50000	244	205
CN(C)c1cccc(-c2cn(Cc3ccc(-c4nnc(C(F)F)o4)cn3)nn2)c1 [Compound 3824, 3-(1-((5-(5-(difluoromethyl)-1,3,4-oxadiazol-2-yl)pyridin-2-yl)methyl)-1H-1,2,3-triazol-4-yl)-N,N-dimethylaniline]	> 50000	2439	20.5
O=C(c1cccc(-c2cn(Cc3ccc(-c4nnc(C(F)F)o4)cn3)nn2)c1)N1CCCC1 [Compound 3829, (3-(1-((5-(5-(difluoromethyl)-1,3,4-oxadiazol-2-yl)pyridin-2-yl)methyl)-1H-1,2,3-triazol-4-yl)phenyl)(pyrrolidin-1-yl)methanone]	> 50000	1655	30.2
CN1CCC(Nc2cccc(-c3cn(Cc4ccc(-c5nnc(C(F)F)o5)cn4)nn3)c2)CC1 [Compound 3830, N-(3-(1-((5-(5-(difluoromethyl)-1,3,4-oxadiazol-2-yl)pyridin-2-yl)methyl)-1H-1,2,3-triazol-4-yl)phenyl)-1-methylpiperidin-4-amine]	> 50000	219	22.8
CCCc1cn(Cc2ccc(-c3nnc(C(F)F)o3)cn2)nn1 [Compound 3831, 2-(difluoromethyl)-5-(6-((4-propyl-1H-1,2,3-triazol-l-yl)methyl)pyridin-3-yl)-1,3,4-oxadiazole]	> 50000	343	145
CCCCc1cn(Cc2ccc(-c3nnc(C(F)F)o3)cn2)nn1 [Compound 3832, 2-(6-((4-butyl-1H-1,2,3-triazol-1-yl)methyl)pyridin-3-yl)-5-(difluoromethyl)-1,3,4-oxadiazole]	> 50000	263	190
OCCCc1cn(Cc2ccc(-c3nnc(C(F)F)o3)cn2)nn1 [Compound 3833, 3-(1-((5-(5-(difluoromethyl)-1,3,4-oxadiazol-2-yl)pyridin-2-yl)methyl)-1H-1,2,3-triazol-4-yl)propan-1-ol]	> 50000	117	424
OCCCCc1cn(Cc2ccc(-c3nnc(C(F)F)o3)cn2)nn1 [Compound 3834, 4-(1-((5-(5-(difluoromethyl)-1,3,4-oxadiazol-2-yl)pyridin-2-yl)methyl)-1H-1,2,3-triazol-4-yl)butan-1-ol]	> 50000	217	238
FC(F)c1nnc(-c2ccc(Cn3cc(-c4cccnc4)nn3)nc2)o1 [Compound 3835, 2-(difluoromethyl)-5-(6-((4-(pyridin-3-yl)-1H-1,2,3-triazol-1-yl)methyl)pyridin-3-yl)-1,3,4-oxadiazole]	> 50000	1170	42.7
FC(F)c1nnc(-c2ccc(Cn3cc(-c4ccncc4)nn3)nc2)o1 [Compound 3837, 2-(difluoromethyl)-5-(6-((4-(pyridin-4-yl)-1H-1,2,3-triazol-1-yl)methyl)pyridin-3-yl)-1,3,4-oxadiazole]	> 50000	965	51.8
FC(F)c1nnc(-c2ccc(Cn3cc(-c4ccc5[nH]cnc5c4)nn3)nc2)o1 [Compound 3843, 2-(6-((4-(1H-benzo[d]imidazol-5-yl)-1H-1,2,3-triazol-1-yl)methyl)pyridin-3-yl)-5-(difluoromethyl)-1,3,4-oxadiazole]	> 50000	5952	8.4
O=c1[nH]cccc1-c1cn(Cc2ccc(-c3nnc(C(F)F)o3)cn2)nn1 [Compound 3844, 3-(1-((5-(5-(difluoromethyl)-1,3,4-oxadiazol-2-yl)pyridin-2-yl)methyl)-1H-1,2,3-triazol-4-yl)pyridin-2(1H)-one]	> 50000	2415	20.7
O=c1ccc(-c2cn(Cc3ccc(-c4nnc(C(F)F)o4)cn3)nn2)c[nH]1 [Compound 3845, 5-(1-((5-(5-(difluoromethyl)-1,3,4-oxadiazol-2-yl)pyridin-2-yl)methyl)-1H-1,2,3-triazol-4-yl)pyridin-2(1H)-one]	> 50000	3105	16.1
FC(F)c1nnc(-c2ccc(Cn3cc(C4CCCC4)nn3)nc2)o1 [Compound 3846, 2-(6-((4-cyclopentyl-1H-1,2,3-triazol-1-yl)methyl)pyridin-3-yl)-5-(difluoromethyl)-1,3,4-oxadiazole]	> 50000	630	79.3
Fc1ccc(-c2cn(Cc3ccc(-c4nnc(C(F)F)o4)cn3)nn2)cc1 [Compound 3855]	> 50000	1818	27.5
Cc1ccccc1-c1cn(Cc2ccc(-c3nnc(C(F)F)o3)cn2)nn1 [Compound 3860, 2-(difluoromethyl)-5-(6-((4-(o-tolyl)-1H-1,2,3-triazol-1-yl)methyl)pyridin-3-yl)-1,3,4-oxadiazole]	> 50000	391	128
FC(F)c1nnc(-c2ccc(Cn3cc(-c4ccco4)nn3)nc2)o1 [Compound 3861, 2-(difluoromethyl)-5-(6-((4-(furan-2-yl)-1H-1,2,3-triazol-1-yl)methyl)pyridin-3-yl)-1,3,4-oxadiazole]	> 50000	922	54.2
